Patent US6617350B2, “Inhibitors of aspartyl protease” (priority 1999, dated 2003)
Where two headings read alike, the source gives them in different places.

Legend:
HIV-1 protease = HIV-1 protease (Human immunodeficiency virus type 1 group M subtype B, UniProt P04585); assay: biochemical; conditions: Table 12; HIV-1 protease; read-out: Ki
HIV-1 (strain IIIB) = assay: microbe, parasite or virus in culture; type: cell-based; conditions: read-out: IC50
[1] = Human immunodeficiency virus 1, IIIB, MT4, Table 12, anti-viral potency in MT-4 cells
[2] = Human immunodeficiency virus 1, IIIB, MT4, Table 13, MT-4 cell based assay, class symbol
[3] = Table 12, anti-viral potency in MT-4 cells

SMILES: CCC(CCC#N)CN(CC(O)C(Cc1ccccc1)NC(=O)OC1CCOC1)S(=O)(=O)c1ccc(OC)cc1 [Compound 9, (3S)-Tetrahydro-3-furanyl N-((1S,2R)-1-benzyl-3-[(2RS)-4-cyano-2-ethyl][(4-methoxyphenyl)sulfonyl]amino-2-hydroxypropyl)carbamate]
- Ki (HIV-1 protease): < 1 nM
- IC50 (HIV-1 (strain IIIB); [1]): > 1000 nM

SMILES: CC(C)(CCC#N)CN(CC(O)[C@H](Cc1ccccc1)NC(=O)OC1COC2OCCC12)S(=O)(=O)c1cccc(N)c1 (stereo partly drawn) [Compound 10, (3S,3aR,6aS)-Hexahydrofuro[2,3-b]furan-3-yl N-((1S,2R)-3-[(3-aminophenyl)sulfonyl](4-cyano-2,2-dimethylbutyl)-amino-1-benzyl-2-hydroxypropyl)carbamate]
- Ki (HIV-1 protease): < 1 nM
- IC50 (HIV-1 (strain IIIB); [1]): ≤ 100 nM

SMILES: COc1ccc(S(=O)(=O)N(CC(O)C(Cc2ccccc2)NC(=O)OC2COC3OCCC23)CC(C)(C)CCC#N)cc1 [Compound 11, (3S,3aR,6aS)-Hexahydrofuro[2,3-b]furan-3-yl N-((1S,2R)-1-benzyl-3-(4-cyano-2,2-dimethylbutyl)[(4-methoxyphenyl)sulfonyl]amino-2-hydroxypropyl)carbamate]
- Ki (HIV-1 protease): < 1 nM
- IC50 (HIV-1 (strain IIIB); [1]): ≤ 100 nM

SMILES: CNc1cccc(S(=O)(=O)N(C[C@@H](O)[C@H](Cc2ccccc2)NC(=O)O[C@H]2CO[C@H]3OCC[C@H]32)CC(C)(C)CCC#N)c1 [Compound 12, (3R,3aS,6aR)-Hexahydrofuro[2,3-b]furan-3-yl N-[(1S,2R)-1-benzyl-3-((4-cyano-2,2-dimethylbutyl)[3-(methylamino)-phenyl]sulfonylamino)-2-hydroxypropyl]carbamate]
- Ki (HIV-1 protease): < 1 nM
- IC50 (HIV-1 (strain IIIB); [1]): ≤ 100 nM
- IC50 (HIV-1 (strain IIIB); [2]): 1 to 10 nM

SMILES: CC(C)(CCC#N)CN(CC(O)[C@H](Cc1ccccc1)NC(=O)OC1COC2OCCC12)S(=O)(=O)c1cccc(N)c1 (stereo partly drawn) [Compound 16, (3R,3aS,6aR)-Hexahydrofuro[2,3-b]furan-3-yl N-((1S,2R)-3-[(3-aminophenyl)sulfonyl](4-cyano-2,2-dimethylbutyl)amino-1-benzyl-2-hydroxypropyl)carbamate]
- Ki (HIV-1 protease): < 1 nM
- IC50 (HIV-1 (strain IIIB); [3]): ≤ 100 nM

SMILES: CCC(CC)(CCC#N)CN(C[C@@H](O)[C@H](Cc1ccccc1)NC(=O)O[C@H]1CCOC1)S(=O)(=O)c1ccc(OC)cc1 [Compound 17, (3S)-Tetrahydro-3-furanyl N-((1S,2R)-1-benzyl-3-(4-cyano-2,2-diethylbutyl)[(4-methoxyphenyl)sulfonyl]amino-2-hydroxypropyl)carbamate]
- Ki (HIV-1 protease): < 1 nM
- IC50 (HIV-1 (strain IIIB)): 100 to 500 nM

SMILES: COc1ccc(S(=O)(=O)N(C[C@@H](O)[C@H](Cc2ccccc2)NC(=O)O[C@H]2CCOC2)CC(C)(C)CCCC#N)cc1 [Compound 18, (3S)-Tetrahydro-3-furanyl N-((1S,2R)-1-benzyl-3-(5-cyano-2,2-dimethylpentyl)[(4-methoxyphenyl)sulfonyl]amino-2-hydroxypropyl)carbamate]
- Ki (HIV-1 protease): < 1 nM
- IC50 (HIV-1 (strain IIIB); [1]): 100 to 500 nM

SMILES: COc1ccc(S(=O)(=O)N(C[C@@H](O)[C@H](Cc2ccccc2)NC(=O)OC2COCOC2)CC(C)(C)CCC#N)cc1 [Compound 19, {(1S,2R)-1-Benzyl-3-[(4-cyano-2,2-dimethyl-butyl)-(4-methoxy-benzenesulfonyl)-amino]-2-hydroxy-propyl}-carbamic acid[1,3]dioxan-5-yl ester]
- Ki (HIV-1 protease): < 1 nM
- IC50 (HIV-1 (strain IIIB); [1]): 100 to 500 nM

SMILES: COc1ccc(S(=O)(=O)N(C[C@@H](O)[C@H](Cc2ccccc2)NC(=O)C(C)CS(C)(=O)=O)CC(C)(C)CCC#N)cc1 (stereo partly drawn) [Compound 22, 1N-(3-Methylsulfonylisobutyryl)-(1S,2R)-1-benzyl-3-(4-cyano-2,2-dimethylbutyl)[4-methoxyphenylsulfonyl]amino-2-hydroxypropyl amine]
- Ki (HIV-1 protease): < 1 nM
- IC50 (HIV-1 (strain IIIB); [3]): 100 to 500 nM

SMILES: CC(C)(CCC#N)CN(C[C@@H](O)[C@H](Cc1ccccc1)NC(=O)O[C@H]1CO[C@H]2OCC[C@H]21)S(=O)(=O)c1ccc2c(c1)OCO2 [Compound 25, {(1S,2R)-3-[(Benzo[1,3]dioxole-5-sulfonyl)-(4-cyano-2,2-dimethyl-butyl)-amino]-1-benzyl-2-hydroxy-propyl}-carbamic acid (3R, 3aS, 6aR)hexahydro-furo[2,3-b]furan-3-yl ester]
- Ki (HIV-1 protease): < 1 nM
- IC50 (HIV-1 (strain IIIB); [1]): ≤ 100 nM

SMILES: COc1ccc(S(=O)(=O)N(CCCCC#N)C[C@@H](O)[C@H](Cc2ccccc2)NC(=O)O[C@H]2CCOC2)cc1 [Compound 26, (3S)-Tetrahydro-3-furanyl N-((1S,2R)-1-benzyl-3-(4-cyanobutyl)[(4-methoxyphenyl)sulfonyl]amino-2-hydroxypropyl)carbamate]
- Ki (HIV-1 protease): < 1 nM
- IC50 (HIV-1 (strain IIIB); [1]): 100 to 500 nM

SMILES: CC(C)(CCC#N)CN(C[C@@H](O)[C@H](Cc1ccccc1)NC(=O)OC1COCOC1)C(=O)OCc1ccccc1 [Compound 28, (4-Cyano-2,2-dimethyl-butyl)-[(2R,3S)-3-([1,3]dioxan-5-yloxycarbonylamino)-2-hydroxy-4-phenyl-butyl]-carbamic acid benzyl ester]
- Ki (HIV-1 protease): < 1 nM
- IC50 (HIV-1 (strain IIIB); [1]): 100 to 500 nM

SMILES: CC(=O)Nc1ccc(S(=O)(=O)N(C[C@@H](O)[C@H](Cc2ccccc2)NC(=O)O[C@H]2CO[C@H]3OCC[C@H]32)CC(C)(C)CCC#N)cc1 [Compound 29, {(1S,2R)-3-[(4-Acetylamino-benzenesulfonyl)-(4-cyano-2,2-dimethyl-butyl)-amino]-1-benzyl-2-hydroxy-propyl}-carbamic acid (3R,3aS,6aR)hexahydro-furo[2,3-b]furan-3-yl ester]
- Ki (HIV-1 protease): < 1 nM
- IC50 (HIV-1 (strain IIIB); [1]): 100 to 500 nM

SMILES: CC(=O)Nc1cc(S(=O)(=O)N(C[C@@H](O)[C@H](Cc2ccccc2)NC(=O)O[C@H]2CO[C@H]3OCC[C@H]32)CC(C)(C)CCC#N)ccc1F [Compound 30, {(1S,2R)-3-[(3-Acetylamino-4-fluoro-benzenesulfonyl)-(4-cyano-2,2-dimethyl-butyl)-amino]-1-benzyl-2-hydroxy-propyl}-carbamic acid (3R,3aS,6aR)hexahydro-furo[2,3-b]furan-3-yl ester]
- Ki (HIV-1 protease): < 1 nM
- IC50 (HIV-1 (strain IIIB); [1]): ≤ 100 nM

SMILES: CC(=O)Nc1cccc(S(=O)(=O)N(C[C@@H](O)[C@H](Cc2ccccc2)NC(=O)O[C@H]2CO[C@H]3OCC[C@H]32)CC(C)(C)CCC#N)c1 [Compound 31, {(1S,2R)-3-[(3-Acetylamino-benzenesulfonyl)-(4-cyano-2,2-dimethyl-butyl)-amino]-1-benzyl-2-hydroxy-propyl}-carbamic acid (3R,3aS,6aR)hexahydro-furo[2,3-b]furan-3-yl ester]
- Ki (HIV-1 protease): < 1 nM
- IC50 (HIV-1 (strain IIIB); [1]): ≤ 100 nM

SMILES: CC(C)(CCC#N)CN(CC(O)C(Cc1ccccc1)NC(=O)OC1COC2OCCC12)S(=O)(=O)c1ccc(OCc2ccccc2)cc1 [Compound 32, {(1S,2R)-3-[(4-benzyloxybenzenesulfonyl)-(4-cyano-2,2-dimethyl-butyl)-amino]-1-benzyl-2-hydroxy-propyl}-carbamic acid (2R,3aS,6aR)hexahydro-furo[2,3-b]furan-3-yl ester]
- Ki (HIV-1 protease): < 1 nM
- IC50 (HIV-1 (strain IIIB); [1]): 100 to 500 nM

SMILES: CC(C)(CCC#N)CN(C[C@@H](O)[C@H](Cc1ccccc1)NC(=O)OC1COCOC1)S(=O)(=O)c1ccc(OCc2ccccc2)cc1 [Compound 33, {(1S,2R)-1-Benzyl-3-[(4-cyano-2,2-dimethyl-butyl)-(4-benzyloxybenzenesulfonyl)-amino]-2-hydroxy-propyl}-carbamic acid[1,3]dioxan-5-yl ester]
- Ki (HIV-1 protease): 10 to 100 nM
- IC50 (HIV-1 (strain IIIB); [1]): 500 to 1000 nM

SMILES: CC(C)(CCC#N)CN(CC(O)C(Cc1ccccc1)NC(=O)OC1COC2OCCC12)S(=O)(=O)c1ccc(O)cc1 [Compound 35, {(1S,2R)-3-[(4-hydroxybenzenesulfonyl)-(4-cyano-2,2-dimethyl-butyl)-amino]-1-benzyl-2-hydroxy-propyl}-carbamic acid (2R,3aS,6aR)hexahydro-furo[2,3-b]furan-3-yl ester]
- Ki (HIV-1 protease): < 1 nM
- IC50 (HIV-1 (strain IIIB); [1]): ≤ 100 nM

SMILES: CC(C)(CCC#N)CN(C[C@@H](O)[C@H](Cc1ccccc1)NC(=O)OC1COCOC1)S(=O)(=O)c1ccc2c(c1)OCO2 [Compound 36, {(1S,2R)-3-[(Benzo[1,3]dioxole-5-sulfonyl)-(4-cyano-2,2-dimethyl-butyl)-amino]-1-benzyl-2-hydroxy-propyl}-carbamic acid[1,3]dioxan-5-yl ester]
- Ki (HIV-1 protease): < 1 nM
- IC50 (HIV-1 (strain IIIB); [1]): ≤ 100 nM

SMILES: CC(C)(CCC#N)CN(CC(O)C(Cc1ccccc1)NC(=O)OC1COC2OCCC12)S(=O)(=O)c1ccc2c(c1)OCCO2 (stereo not drawn) [Compound 37]
- Ki (HIV-1 protease): < 1 nM
- IC50 (HIV-1 (strain IIIB); [1]): ≤ 100 nM

SMILES: CNc1cccc(S(=O)(=O)N(CC(O)C(Cc2ccccc2)NC(=O)OC2COC3OCCC23)CC(C)(C)CCCC#N)c1 (stereo not drawn) [Compound 38]
- Ki (HIV-1 protease): < 1 nM
- IC50 (HIV-1 (strain IIIB); [1]): ≤ 100 nM

SMILES: CC(C)(CCCC#N)CN(CC(O)C(Cc1ccccc1)NC(=O)OC1COC2OCCC12)S(=O)(=O)c1ccc2c(c1)OCO2 (stereo not drawn) [Compound 39]
- Ki (HIV-1 protease): < 1 nM
- IC50 (HIV-1 (strain IIIB); [1]): ≤ 100 nM
- IC50 (HIV-1 (strain IIIB); [2]): 1 to 10 nM

SMILES: CC(C)(CCCC#N)CN(CC(O)C(Cc1ccccc1)NC(=O)OC1COC2OCCC12)S(=O)(=O)c1ccc2c(c1)OCCO2 (stereo not drawn) [Compound 40]
- Ki (HIV-1 protease): < 1 nM
- IC50 (HIV-1 (strain IIIB); [1]): ≤ 100 nM

SMILES: CC(C)(CCC#N)CN(CC(O)C(Cc1ccccc1)NC(=O)OC1COC2OCCC12)S(=O)(=O)c1ccc2c(c1)OCCO2 (stereo not drawn) [Compound 41]
- Ki (HIV-1 protease): < 1 nM
- IC50 (HIV-1 (strain IIIB); [3]): ≤ 100 nM

SMILES: CC(C)(CCC#N)CN(C[C@@H](O)[C@H](Cc1ccccc1)NC(=O)OC1COCOC1)S(=O)(=O)c1ccc(O)cc1 [Compound 42, {(1S,2R)-1-Benzyl-3-[(4-cyano-2,2-dimethyl-butyl)-(4-hydroxybenzenesulfonyl)-amino]-2-hydroxy-propyl}-carbamic acid[1,3]dioxan-5-yl ester]
- Ki (HIV-1 protease): < 1 nM
- IC50 (HIV-1 (strain IIIB); [1]): 100 to 500 nM

SMILES: CCN(C(=O)OC(C)(C)C)c1cccc(S(=O)(=O)N(CC(O)C(Cc2ccccc2)NC(=O)OC2COC3OCCC23)CC(C)(C)CCC#N)c1 [Compound 43, {(1S,2R)-3-[(3-N-tert-butoxycarbonyl-N-ethylaminophenyl)sulfonyl]-(4-cyano-2,2-dimethyl-butyl)-amino]-1-benzyl-2-hydroxy-propyl}-carbamic acid (3R,3aS,6aR)hexahydro-furo[2,3-b]furan-3-yl ester]
- Ki (HIV-1 protease): < 1 nM
- IC50 (HIV-1 (strain IIIB); [1]): 100 to 500 nM
